# From patent US6852538B1, “Nur-RE a response element which binds nur nuclear receptors and method of use therefor” (Institut de Recherches Cliniques de Montreal, priority 1996, dated 2005)
# “Also recorded” adds a separate entry of the source. Ends that are not written are not given here.
# Experiments:
# Nur77 mRNA = assay: Northern blot of Nur77 mRNA in AtT-20 cells; type: cell-based
# Procedure: Total RNA (20 μg) extracted from AtT-20 cells was used in Northern blot experiments performed as described previously (Lamonerie et al., 1996, Genes Dev. 10:1284-1295).
# Nur-RE [1] = assay: NurRE-luc reporter cotransfection with Nur77 and GR in CV-1 cells; type: cell-based; details: Dex 10^−7M, ratio 1/0
# [2] = system: rat POMC promoter (−480 to +63 bp); assay: POMC promoter-luciferase reporter lipofected in AtT-20 cells; type: cell-based; details: Dex 10^−7M
# Procedure: (§1) Transfections in AtT-20 cells were performed by lipofection (lipofectin, Gibco) using exponentially growing AtT-20 cells (7.5×10^5) in 35 mm Petri dishes. Cells were grown in DMEM with 10% fetal calf serum stripped with dextran-coated charcoal. Cells and media were harvested 16 h after lipofection. Each sample for lipofection contained a total of 1.5 μg DNA, including 300 ng reporter plasmid, 300 ng RSV-GH as internal control, 100 ng of pCMX-Nur77 expression vector, and total DNA was completed to 1.5 μg with pSP64. The POMC promoter constructs were described previously (Therrien et al., 1991, Mol. Cell. Biol. 11:3492-3503; Therrien et al., 1993, Cell. Biol. 13:2342-2353.). In particular, the NurRE and nGRE linker scanning replacement mutations were described previously as mutants 3 and 15 in a series of promoter mutations (Therrien et al., 1991, supra). DO 11.10 cells were electroporated using a Biorad instruments at 250 V, 960 μFarad, and 10 μg each of reporter plasmid and expression vectors. CRH (10^−7M) and forskolin (10^−7M) were used at maximally active concentrations, and anti-CD3 (clone 145-2C11) was used at 1 μg/ml to coat dishes. The expression plasmid for the Nur77 dominant negative mutant was used at 3 μg/dish. Data are presented as the means ± SEM of 3 to 5 experiments each performed in duplicate. […]
# NBRE = assay: NBRE-luc reporter, antagonism between Nur77 and Dex; type: cell-based; details: data not shown
# Procedure: Transfections in AtT-20 cells were performed by lipofection (Lipofectamine, Gibco) using exponentially growing AtT-20 cells (7.5×10^5) in 35 mm Petri dishes. Cells were grown in DMEM with 10% fetal calf serum stripped with dextrancoated charcoal (Drouin et al., 1976, Endocrinology 98:1528-1534). Cells and media were harvested 16 h after lipofection. Each sample for lipofection contained a total of 1.5 μg DNA, including 300 ng reporter plasmid, 300 ng RSV-GH as internal control, 100 ng of pCMX-Nur77 expression vector, and total DNA was completed to 1.5 μg with pSP64. Where indicated, CRH and Dex were added at 10^−7M. The POMC promoter constructs were described previously (Therrien et al., 1991, Mol. Cell. Biol. 11:3492-3503; Therrien et al., 1993, Mol. Cell. Biol. 13:2342-2353). In particular, the NurRE and nGRE linker scanning replacement mutations were described previously as mutants 3 and 15 in a series of promoter mutations (Therrien et al., 1991, supra). DO 11.10 cells ([…] in 0.35 ml SMEM) were electroporated using a Biorad instruments at 250 V, 960 μFarad, and 10 μq each of reporter plasmid and expression vectors. After electroporation, cells were plated in SMEM containing 5% fetal calf serum with or without 10^−7M Dex, antiCD3 (clone 145-2C11) was used at 1 μg/ml to coat dishes (Iwata et al., 1991, Eur. J. Pharmacol. 21:643-648). […]
# Nur-RE [3] = assay: NurRE-luc reporter (three copies of Nur-RE upstream of minimal POMC promoter) in AtT-20 cells; type: cell-based; details: CRH 10^−7M
# Procedure: as §1
# Nur77 (NGFI-B) [4] = biological target: T1, Nur77 (NGFI-B) (UniProt P12813 P12813:1-601); assay: EMSA; binds as monomer; details: tags: Promega TNT SP6/T7, pCMX-Nur77; label: 3'-end label (Klenow)
# Excerpt: For gel retardation experiments, Nur-RE or NBRE oligonucleotides were 3'-end-labeled using Klenow polymerase and purified on polyacrilamide gels.
# (§2) The interaction of Nur77 with Nur-RE was investigated directly in binding studies using in vitro translated Nur77.
# Nur77 (NGFI-B) [5] = biological target: T1, Nur77 (NGFI-B); assay: EMSA; binds as homodimer, apparently cooperative; DMS interference maps two inverted octamers 6 bp apart; details: tags: Promega TNT SP6/T7, pCMX-Nur77; label: 3'-end label (Klenow)
# Excerpt: End-labeled coding (C) and non-coding (NC) strands of the Nur-RE were used for DMS interference of Nur77 binding. […] E) Binding of Nur77 to the wild-type and mutant Nur-RE. […] Methods. For gel retardation experiments, Nur-RE or NBRE oligonucleotides were 3'-end-labeled using Klenow polymerase and purified on polyacrilamide gels.
# as §2
# [6] = biological target: Glucocorticoid receptor (GR) (UniProt P06536 P06536:1-795); assay: EMSA; details: tags: Promega TNT; label: 3'-end label (Klenow)
# Sequence of Glucocorticoid receptor (GR) (P06536 whole entry, one chain of several): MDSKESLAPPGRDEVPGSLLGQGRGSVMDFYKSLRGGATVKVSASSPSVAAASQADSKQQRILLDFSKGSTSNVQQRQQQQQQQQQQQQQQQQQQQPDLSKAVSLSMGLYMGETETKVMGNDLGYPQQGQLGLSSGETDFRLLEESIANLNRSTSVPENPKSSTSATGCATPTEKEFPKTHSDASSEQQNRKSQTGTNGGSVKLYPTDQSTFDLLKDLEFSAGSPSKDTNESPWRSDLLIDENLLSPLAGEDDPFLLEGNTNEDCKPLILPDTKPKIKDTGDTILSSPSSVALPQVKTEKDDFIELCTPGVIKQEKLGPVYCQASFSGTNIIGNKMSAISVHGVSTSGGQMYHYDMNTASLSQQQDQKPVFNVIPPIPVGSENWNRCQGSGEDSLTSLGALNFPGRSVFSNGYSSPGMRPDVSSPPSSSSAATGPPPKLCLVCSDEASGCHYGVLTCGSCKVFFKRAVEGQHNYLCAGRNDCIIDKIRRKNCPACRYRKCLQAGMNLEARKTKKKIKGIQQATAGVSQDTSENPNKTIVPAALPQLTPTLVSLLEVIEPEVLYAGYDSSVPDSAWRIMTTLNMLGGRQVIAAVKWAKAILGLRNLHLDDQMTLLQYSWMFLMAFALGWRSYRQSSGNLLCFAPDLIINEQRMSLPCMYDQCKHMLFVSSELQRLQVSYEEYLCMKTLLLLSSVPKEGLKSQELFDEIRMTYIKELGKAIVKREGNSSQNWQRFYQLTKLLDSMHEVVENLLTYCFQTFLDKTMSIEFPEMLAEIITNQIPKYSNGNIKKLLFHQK
# T1 sequence (P12813 whole entry, one chain of several): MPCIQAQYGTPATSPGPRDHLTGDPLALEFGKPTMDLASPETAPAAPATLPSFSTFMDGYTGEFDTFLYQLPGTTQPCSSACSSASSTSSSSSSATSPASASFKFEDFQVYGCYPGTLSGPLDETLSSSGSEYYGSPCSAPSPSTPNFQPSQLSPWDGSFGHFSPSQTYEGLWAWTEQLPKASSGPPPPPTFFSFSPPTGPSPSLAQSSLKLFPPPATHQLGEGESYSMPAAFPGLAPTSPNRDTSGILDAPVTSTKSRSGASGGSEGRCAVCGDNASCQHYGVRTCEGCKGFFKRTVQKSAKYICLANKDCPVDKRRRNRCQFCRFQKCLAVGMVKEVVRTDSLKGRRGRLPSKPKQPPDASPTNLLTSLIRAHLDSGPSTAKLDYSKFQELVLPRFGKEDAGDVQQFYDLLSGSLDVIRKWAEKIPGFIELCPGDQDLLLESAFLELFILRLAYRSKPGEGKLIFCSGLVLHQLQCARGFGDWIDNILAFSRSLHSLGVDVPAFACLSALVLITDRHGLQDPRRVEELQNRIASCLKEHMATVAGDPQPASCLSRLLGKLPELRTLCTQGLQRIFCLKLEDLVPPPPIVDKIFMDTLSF
molecule,measurement,setting,value
"C[C@@H]1C[C@H]2[C@@H]3CCC4=CC(=O)C=C[C@]4(C)[C@@]3(F)[C@@H](O)C[C@]2(C)[C@@]1(O)C(=O)CO [Dex, dexamethasone]",reduction of the CRH induction of Nur77 mRNA,Nur77 mRNA; Dex 10^−7M with CRH 10^−7M,about 50%
same,effect on Nur77 activation at the NurRE in the absence of GR,Nur-RE [1],no effect
same,magnitude of the repression of POMC promoter/luciferase reporter,[2],2- to 3 fold
same,magnitude of Nur77/Dex antagonism on NBRE-luc reporter relative to NurRE-luc,NBRE,about 40 fold less
"Corticotropin Releasing Hormone (SEEPPISLDLTFHLLREVLEMARAEQLAQQAHSNRKLMEII; ends and bridges not checked; UniProt P06850 154-194, looked up) [CRH, hypothalamic hormone, major stimulus of pituitary ACTH secretion and of POMC transcription]",induction of Nur77 mRNA/expression,Nur77 mRNA; CRH 10^−7M,rapidly Induced; also recorded: transient induction
same,"response of Nur-RE reporter (oligomerized response element, construct 6) to CRH",Nur-RE [3],greatly enhanced response
NBRE (dsDNA) DNA 1: GATCCTCGTGCGAAAAGGTCAAGCGCTA DNA 2: TAGCGCTTGACCTTTTCGCACGAGGATC,binding result,Nur77 (NGFI-B) [4],binds
NurRE (POMC) (dsDNA) DNA 1: GATCCTAGTGATATTTACCTCCAAATGCCAGGA DNA 2: TCCTGGCATTTGGAGGTAAATATCACTAGGATC,binding result,Nur77 (NGFI-B) [5],binds
same,binding result,[6],no binding
